Laboratory results published in patent publication US20100286415A1, “SLEEP-IMPROVING AGENT” (OSAKA BIOSCIENCE INSTITUTE, priority 2007, published 2010).

How the values were obtained:
Slc:ICR mice = test: Locomotor assay (amount of locomotion) in mice, infrared monitor (Test Example 2); type: in vivo, mouse; conditions: 100 mg/kg oral, administered at start of dark period, compared to vehicle (water), FIG. 2
Protocol: Slc:ICR mice (male, 10 weeks old, weighing 38-40 g) were purchased from Japan SLC, Inc.
The mice were housed in groups (8 mice per group) in acrylic cages placed in a chamber for monitoring the amount of animal behavior, and were habituated for 7 days. They were given solid rat food (food name: Labo MR Stock) in a 12-hour light and dark cycle (light period starting at 7 a.m.), with free access to food and drinking water.
Oxypinnatanine was dissolved in water, and a dosage weight of 100 mg/kg was orally administered using a probe. Administration was carried out at 19:00 (starting time of a dark period). On day 1, water was solely administered as a control containing only the solvent. On day 2, oxypinnatanine was administered (n=8).
An infrared monitor was used to detect infrared light emitted from the animals to count the amount of locomotion. The infrared monitor recorded continuously for 12 hours. Recording was conducted using a Biotex 16CH Act Monitor BAI2216 (Biotex). For analysis, the time-dependent change in the amount of locomotion and the total amount of locomotion in each hour were calculated.

C57BL/6 mice = test: EEG/EMG sleep recording in mice after oral administration (Test Example 3); type: in vivo, mouse; conditions: 10 mg/kg oral, administered at start of dark period, compared to vehicle (water), FIG. 3
Protocol: C57BL/6 mice (male, 10 weeks old, weighing 25-28 g) were purchased from Oriental BioService Inc.
The mice were individually housed in acrylic cages placed in a sound insulation chamber. They were given solid mouse food (food name: Labo MR Stock) in a 12-hour light and dark cycle (light period starting at 8 a.m.), with free access to food and drinking water.
An operation to implant electrodes for measuring EEG/EMG was performed on the mice. The mice were placed in a chamber for recovery for 10 days, and recovered. Then, the mice were moved to a chamber for recording, and measurement cables were connected to the electrodes. The mice were adapted to the environment for 4 days.
Oxypinnatanine was dissolved in water, and a dosage of 10 mg/kg was orally administered using a probe. Administration was carried out at 20:00 (starting time of a dark period). On day 1, water was solely administered as a control containing only the solvent. On day 2, oxypinnatanine was administered (n=4).
The EEG and EMG were amplified (EEG: 0.5-30 Hz, EMG: 20-200 Hz), and then digitalized at the sampling speed of 128 Hz for recording. […] EEG data over 12 hours after administration were analyzed. Then, waking time, non-REM sleep time, and REM sleep time per hour were calculated. Further, the EEG power spectrum was analyzed, and the amplitudes of theta waves and delta waves were thereby analyzed.

Sprague-Dawley rats = test: EEG/EMG sleep recording in rats after oral administration (Test Example 1); type: in vivo, rat; conditions: 100 mg/kg oral, administered at start of dark period, compared to vehicle (water), FIG. 1
Protocol: Sprague-Dawley rats (male, 8 weeks old, weighing 250-280 g) were purchased from Japan SLC, Inc.
The rats were individually housed in acrylic cages placed in a sound insulation chamber. They were given solid rat food (food name: Labo MR Stock) in a 12-hour light and dark cycle (light period starting at 7 a.m.), with free access to food and drinking water.
An operation to implant electrodes for measuring EEG/EMG was performed on the rats (Huang Z. L. et al., J. Neurosci. 2003, 23(14), 5975-83., Okada T. et al., Biochem. Biophys. Res. Commun. 2003, 312(1), 29-34). The rats were placed in a chamber for recovery for 10 days, and recovered. Then, the rats were moved to a chamber for recording, and measurement cables were connected to the electrodes. The rats were adapted to the environment for 4 days.
Oxypinnatanine was dissolved in water, and a dosage of 100 mg/kg was orally administered using a probe. Administration was carried out at 19:00 (starting time of a dark period). […]
The EEG and EMG were amplified (EEG: 0.5-30 Hz, EMG: 20-200 Hz), and then digitalized at a sampling speed of 128 Hz for recording. […] EEG data over 12 hours after administration were analyzed. Then, waking time, non-REM sleep time, and REM sleep time per hour were calculated. Further, the EEG power spectrum was analyzed, and the amplitudes of theta waves and delta waves were thereby analyzed.

| Compound | melting point | Total amount of locomotion during 6 hours after administration (Slc:ICR mice) | Total non-REM sleep time during 4 hours after administration (C57BL/6 mice) | Total non-REM sleep time during 6 hours after administration (Sprague-Dawley rats) |
| --- | --- | --- | --- | --- |
| NC(CC(O)C(=O)NC1OCC=C1CO)C(=O)O (stereo not shown) (hydrate or solvate) [Oxypinnatanine, oxypinnatanine] | 152 to 153 °C (dec.) |  |  |  |
| NC(CC(O)C(=O)NC1OCC=C1CO)C(=O)O (stereo not shown) [Oxypinnatanine, oxypinnatanine] |  | statistically significant decrease in the amount of locomotion | effect of increasing non-REM sleep time with statistical significance | effect of increasing non-REM sleep time |
